Key:
rd1 mouse = experiment: Rd1 mouse model of RP (retina organ culture), rows of photoreceptors; format: cell-based; conditions: 10 nM; equivalent of postnatal day 21; P = 0.04; rd1 vehicle 1.81 ± 0.09
Procedure: For the calcium-overload in vitro, the rd1 mouse was utilized (e.g., Farber et al., 1995). […] To test the potential therapeutic efficacy, compounds were added to the culture media starting the day after the start of the culture (equivalent to postnatal day 11) and replaced every 48 hours. Effects were assessed on the degeneration of photoreceptor cells morphologically at the equivalent of postnatal day 21.

Balb/c mice = experiment: Light model assay (light damage), eye drops, rows of photoreceptors; format: in vivo, mouse; conditions: 100 μM eye drops once daily; continuous light for 7 days; maximum effect
Source text: The light model assay is generally accepted as a model of age related macular degeneration (AMD). […] In particular, oxidative damage has been detected by immunohistochemistry, detecting the presence of oxidized and tyrosine-phosphorylated proteins as well as the upregulation of endogenous antioxidants such as thioredoxin and glutathione peroxidase.
The light model assay was used to further test the therapeutic potential of the compounds of the invention. Photoreceptors from albino animals are very sensitive to constant light, lacking the RPE pigment to protect them. […] To test the potential therapeutic efficacy, eye drops were formulated in 0.1% Myrj in 0.9% saline, applied once daily throughout the period of light exposure, and their effect assessed on the light-induced degeneration of photoreceptor cells morphologically and electrophysiologically, 10 days after the onset of the CL exposure.

rd10 mouse = experiment: Rd10 mouse model of RP, eye drops, rows of photoreceptors; format: in vivo; conditions: 100 μM eye drops once daily from postnatal day 14, assessed at postnatal day 25; P < 0.005; vehicle 2.3 ± 0.23
Source text: To test the potential therapeutic efficacy, eye drops were formulated in 0.1% Myrj in 0.9% saline, applied once daily starting at the day of eye opening (postnatal day 14), and their effect assessed on the degeneration of photoreceptor cells morphologically at postnatal day 25.

661W or C6 cells = experiment: Metabolic Protection Assay (MTT), protection from calcium-ionophore A23187; format: cell-based; conditions: 1 μM ionophore, 24 h
Procedure: The compound 3-(4,5-Dimethylthiazol-2-yl)-2,5-diphenyltetrazolium bromide (MTT) is a tetrazolium ion that is reduced to a blue formazan dye via several families of NAD(P)H-dependent oxidoreductases. Formation of the formazan dye from MTT or other related tetrazolium dyes are commonly used as a viability assay even though, in fact, the assay is a metabolic capacity assay.
In this assay, 661W or C6 cells were maintained in DMEM supplemented with 10% serum. 100 of 70,000 cells/mL cells were seeded into each well of 96 well plates using DMEM supplemented with 5% serum. Cells were then allowed to grow to confluency for 48 hours. Representative compounds of the invention were added in 2 μL media and calcium-ionophore A23187 was then added in 1 μL for a final concentration of 1 μM and after 24 h, 20 uL of […] MTT were added to each well and the cells were incubated for another 4 h after which 100 μL of 1% SDS in 0.01 M aqueous HCl were added to each well and the plates were incubated overnight. Absorbance was measured at […] (background correction). The 1 μM ionophore A23187 caused about 50% loss in MTT signal at 24 h. Protection was calculated as the increase in absorbance of treatment groups normalized to the vehicle control.

SMILES	rd1 protection (# of rows) (rd1 mouse)	LD Protection (# of rows) (Balb/c mice)	rd10 protection (# of rows) (rd10 mouse)	loss in MTT signal (661W or C6 cells)
CCN1C(=O)C(Cc2cccc(OC)c2O)(OC(=O)N(C)C)c2cc(Cl)ccc21 (stereo not drawn) [Example 10, 5-chloro-1-ethyl-3-(2-hydroxy-3-methoxybenzyl)-2-oxoindolin-3-yl dimethylcarbamate]	(10 nM) 2.51 ± 0.25 (P = 0.04) # of rows	(100 μM) 5.8 ± 0.34 (P < 0.001) # of rows	(100 μM) 2.8 ± 0.48 (P < 0.005) # of rows	
CCN1C(=O)C(Cc2cccc(OC)c2OC(=O)NCCOCCO)(OC(=O)c2ccccc2)c2cc(Cl)ccc21 (stereo not drawn) [Example 12, 5-chloro-1-ethyl-3-(2-(((2-(2-hydroxyethoxy)ethyl)carbamoyl)oxy)-3-methoxybenzyl)-2-oxoindolin-3-yl benzoate]		(100 μM) 4.87 ± 0.22 (P < 0.01) # of rows		
CCN1C(=O)C(O)(Cc2cccc3c2OCO3)c2cc(C)ccc21 (stereo not drawn) [Example 17, 3-(benzo[d][1,3]dioxol-4-ylmethyl)-1-ethyl-3-hydroxy-5-methylindolin-2-one]		(100 μM) 6.48 ± 0.13 (P < 0.001) # of rows		
CNc1ccc2oc(C[C@H]3O[C@@]4(CC[C@H]3C)O[C@H]([C@H](C)C(=O)c3ccc[nH]3)[C@H](C)C[C@H]4C)nc2c1C(=O)O [Example A23187]				about 50%

— patent US10370328B2, “Oxindole compounds and pharmaceutical compositions thereof” (MUSC FOUNDATION FOR RESEARCH DEVELOPMENT, priority 2015, dated 2019)
